Measured values from US12209102B2, “Heterocyclic compounds and uses thereof” (Kumquat Biosciences Inc., priority 2022, dated 2025).

Tests used:
K-Ras G12D = biological target: T1, K-Ras G12D (Homo sapiens, UniProt P01116, G12D); test: HTRF resonance energy transfer assay, K-Ras G12D / SOS1 interaction; type: biochemical; settings: HTRF assay of Example 5; read-out: IC50 against K-Ras G12D
T1 construct: made in house; host or cells: E. coli BL21 (DE3)
How it was run: (§1)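 GST-tagged K-Ras (WT or mutant) bound to anti-GST-Eu donor was mixed with His-hSOS1 bound to anti-6His-XL665 acceptor in ~5 mM HEPES pH 7.4, 150 mM NaCl, 1 mM DTT, 0.05% BSA, 0.0025% Igepal. HTRF (ex 337, em 620/665 nm) was read after ~10 min or longer. IC50 came from the 665/620 ratio over duplicates from 10 μM to 0.01 μM.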

K-Ras G12V = biological target: T2, K-Ras G12V (Homo sapiens, UniProt P01116, G12V); test: HTRF resonance energy transfer assay, K-Ras G12V / SOS1 interaction; type: biochemical; settings: HTRF assay of Example 5; read-out: IC50 against K-Ras G12V
T2 construct: made in house; host or cells: E. coli BL21 (DE3)
T2 sequence (P01116 1-188 isoform P01116-2 G12V): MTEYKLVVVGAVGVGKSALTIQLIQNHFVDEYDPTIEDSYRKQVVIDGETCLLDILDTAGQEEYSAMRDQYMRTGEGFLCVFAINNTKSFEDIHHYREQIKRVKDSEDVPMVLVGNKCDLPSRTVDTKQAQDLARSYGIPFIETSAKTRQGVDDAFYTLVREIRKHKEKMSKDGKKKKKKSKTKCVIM
How it was run: as §1

K-Ras WT = biological target: T3, K-Ras WT (Homo sapiens, UniProt P01116); test: HTRF resonance energy transfer assay, K-Ras WT / SOS1 interaction; type: biochemical; settings: HTRF assay of Example 5; read-out: IC50 against K-Ras WT
T3 construct: made in house; host or cells: E. coli BL21 (DE3)
T3 sequence (P01116 1-188 isoform P01116-2): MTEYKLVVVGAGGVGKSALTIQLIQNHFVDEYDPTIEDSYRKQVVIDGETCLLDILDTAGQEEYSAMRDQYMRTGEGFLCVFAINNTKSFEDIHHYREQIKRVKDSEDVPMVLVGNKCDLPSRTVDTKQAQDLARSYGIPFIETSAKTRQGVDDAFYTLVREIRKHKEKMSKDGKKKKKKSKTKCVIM
How it was run: as §1

SW620 cells = test: Ras cellular assay, growth of cells with K-Ras G12V mutation (CellTiter-Glo); type: cell-based; settings: Homo sapiens, SW-620; cell growth, Example 9, G12V mutation; read-out: IC50 against SW620 cells
Procedure: For example, this assay can be also used to assess a selective growth inhibition of a mutant Ras protein relative to a wildtype, or relative to a different mutant Ras protein.
SW620 (ATCC CCL-227) and Capan-1 (ATCC HTB-79) cell lines comprise a G12V mutation and can be used to assess Ras cellular signaling in vitro, e.g., in response to the compounds herein. SW620 culture medium is prepared with RPMI-1640 and 10% heat-inactivated FBS. Capan-1 culture medium is prepared with RPMI-1640 and 10% heat-inactivated FBS. A CellTiter-Glo (CTG) luminescent based assay (Promega) is used to assess growth of the cells, as a measurement of the ability of the compounds herein to inhibit Ras signaling in the cells. The cells (e.g., 800 per well) are seeded in their respective culture medium in standard tissue culture-treated 384-well format plates (Falcon #08-772-116) or ultra-low attachment surface 384-well format plates (S-Bio #MS-9384WZ). The day after plating, cells are treated with a dilution series (e.g., a 10 point 3-fold dilution series) of the compounds herein (e.g., approximately 40 μL final volume per well). Cell viability can be monitored (e.g., approximately 6 days later) according to the manufacturer's recommended instructions, where the CellTiter-Glo reagent is added (e.g., approximately 10 μL), vigorously mixed, covered, and placed on a plate shaker (e.g., approximately for 20 min) to ensure sufficient cell lysis prior to assessment of luminescent signal. The IC50 values are determined using the four parameter fit. The resulting IC50 value is a measurement of the ability of the compounds herein to reduce cell growth of Ras-driven cells (e.g., tumor cell lines) in vitro and/or in vivo.

K-Ras G12S = biological target: T4, K-Ras G12S (Homo sapiens, UniProt P01116, G12S); test: HTRF resonance energy transfer assay, K-Ras G12S / SOS1 interaction; type: biochemical; settings: HTRF assay of Example 5; read-out: IC50 against K-Ras G12S
T4 construct: made in house; host or cells: E. coli BL21 (DE3)
T4 sequence (P01116 1-188 isoform P01116-2 G12S): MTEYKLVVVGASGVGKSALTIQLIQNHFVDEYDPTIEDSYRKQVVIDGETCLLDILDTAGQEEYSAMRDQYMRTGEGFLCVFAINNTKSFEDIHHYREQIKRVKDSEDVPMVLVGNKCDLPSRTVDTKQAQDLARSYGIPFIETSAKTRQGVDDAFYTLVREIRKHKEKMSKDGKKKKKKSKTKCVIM
How it was run: as §1

T1 sequence (P01116 1-188 isoform P01116-2 G12D): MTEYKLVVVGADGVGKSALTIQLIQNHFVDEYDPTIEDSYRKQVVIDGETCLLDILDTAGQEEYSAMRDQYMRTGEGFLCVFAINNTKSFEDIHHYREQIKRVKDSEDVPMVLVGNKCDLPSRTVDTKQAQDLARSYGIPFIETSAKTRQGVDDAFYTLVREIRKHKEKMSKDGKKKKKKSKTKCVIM

Row | IC50 (K-Ras G12D) | IC50 (K-Ras G12V) | IC50 (K-Ras WT) | IC50 (SW620 cells) | IC50 (K-Ras G12S) | Structure (SMILES)
1 | < 0.1 µM | < 0.1 µM | < 0.1 µM | < 5 µM | < 0.1 µM | CN1c2nc(OC[C@@]34CCCN3C[C@H](F)C4)nc3c(F)c(-c4ccc(F)c5sc(N)c(C#N)c45)c(Cl)c(c23)OCCC1CO (stereo partly drawn) [Compound 1217, 2-amino-4-(9-chloro-11-fluoro-2-(((2R,7aS)-2-fluorotetrahydro-1H-pyrrolizin-7a(5H)-yl)methoxy)-5-(hydroxymethyl)-4-methyl-4,5,6,7-tetrahydro-[1,5]oxazocino[4,3,2-de]quinazolin-10-yl)-7-fluorobenzo[b]thiophene-3-carbonitrile]
2 | < 0.1 µM | < 0.1 µM | < 0.1 µM | < 5 µM | < 0.1 µM | C[C@H]1COc2c(Cl)c(-c3ccc(F)c4sc(N)c(C#N)c34)c(F)c3nc(OC[C@@]45CCCN4C[C@H](F)C5)nc(c23)N1C1CCOC1 (stereo partly drawn) [Compound 750, 2-amino-4-((5S)-8-chloro-10-fluoro-2-(((2R,7aS)-2-fluorotetrahydro-1H-pyrrolizin-7a(5H)-yl)methoxy)-5-methyl-4-(tetrahydrofuran-3-yl)-5,6-dihydro-4H-[1,4]oxazepino[5,6,7-de]quinazolin-9-yl)-7-fluorobenzo[b]thiophene-3-carbonitrile]
3 | < 0.1 µM | < 0.1 µM | < 0.1 µM | < 5 µM | – | N#Cc1c(N)sc2c(F)ccc(-c3c(Cl)c4c5c(nc(OC[C@@]67CCCN6C[C@H](F)C7)nc5c3F)N(CC(F)F)C(CC3CC3C#N)CO4)c12 (single isomer, unassigned) [Compound 674]
4 | < 0.1 µM | < 0.1 µM | – | < 5 µM | – | N#Cc1c(N)sc2c(F)ccc(-c3c(Cl)c4c5c(nc(OC[C@@]67CCCN6C[C@H](F)C7)nc5c3F)N(CC(F)F)C(C3CCCN3)CO4)c12 (stereo partly drawn) [Compound 784, 2-amino-4-(8-chloro-4-(2,2-difluoroethyl)-10-fluoro-2-(((2R,7aS)-2-fluorotetrahydro-1H-pyrrolizin-7a(5H)-yl)methoxy)-5-(pyrrolidin-2-yl)-5,6-dihydro-4H-[1,4]oxazepino[5,6,7-de]quinazolin-9-yl)-7-fluorobenzo[b]thiophene-3-carbonitrile]
5 | – | < 0.1 µM | – | < 5 µM | < 0.1 µM | C[C@H]1CN(CC2(N(C)C)CCC2)c2nc(OC[C@@]34CCCN3C[C@H](F)C4)nc3c(F)c(-c4ccc(F)c5sc(N)c(C#N)c45)c(Cl)c(c23)O1 [Compound 978, 2-amino-4-((6S)-8-chloro-4-((1-(dimethylamino)cyclobutyl)methyl)-10-fluoro-2-(((2R,7aS)-2-fluorotetrahydro-1H-pyrrolizin-7a(5H)-yl)methoxy)-6-methyl-5,6-dihydro-4H-[1,4]oxazepino[5,6,7-de]quinazolin-9-yl)-7-fluorobenzo[b]thiophene-3-carbonitrile]
6 | – | – | – | < 5 µM | – | N#Cc1c(N)sc2c(F)ccc(-c3c(Cl)c4c5c(nc(OC[C@@]67CCCN6C[C@H](F)C7)nc5c3F)N(C3CCOC3)[C@@H](C(F)F)CO4)c12 (stereo partly drawn) [Compound 747, 2-amino-4-((5R)-8-chloro-5-(difluoromethyl)-10-fluoro-2-(((2R,7aS)-2-fluorotetrahydro-1H-pyrrolizin-7a(5H)-yl)methoxy)-4-(tetrahydrofuran-3-yl)-5,6-dihydro-4H-[1,4]oxazepino[5,6,7-de]quinazolin-9-yl)-7-fluorobenzo[b]thiophene-3-carbonitrile]
7 | – | < 0.1 µM | – | < 5 µM | – | CS(=O)(=O)NCC1COc2c(Cl)c(-c3ccc(F)c4sc(N)c(C#N)c34)c(F)c3nc(OC[C@@]45CCCN4C[C@H](F)C5)nc(c23)N1CC(F)F (stereo partly drawn) [Compound 847, N-((9-(2-amino-3-cyano-7-fluorobenzo[b]thiophen-4-yl)-8-chloro-4-(2,2-difluoroethyl)-10-fluoro-2-(((2R,7aS)-2-fluorotetrahydro-1H-pyrrolizin-7a(5H)-yl)methoxy)-5,6-dihydro-4H-[1,4]oxazepino[5,6,7-de]quinazolin-5-yl)methyl)methanesulfonamide]
8 | – | – | – | < 5 µM | – | N#Cc1c(N)sc2c(F)ccc(-c3c(Cl)c4c5c(nc(OC[C@@]67CCCN6C[C@H](F)C7)nc5c3F)N(CC(F)F)[C@@H](C3(O)CC3)CO4)c12 [Compound 1001, 2-amino-4-((R)-8-chloro-4-(2,2-difluoroethyl)-10-fluoro-2-(((2R,7aS)-2-fluorotetrahydro-1H-pyrrolizin-7a(5H)-yl)methoxy)-5-(1-hydroxycyclopropyl)-5,6-dihydro-4H-[1,4]oxazepino[5,6,7-de]quinazolin-9-yl)-7-fluorobenzo[b]thiophene-3-carbonitrile]
9 | < 0.1 µM | < 0.1 µM | < 0.1 µM | – | < 0.1 µM | N#Cc1c(N)sc2c(F)ccc(-c3c(Cl)c4c5c(nc(OC[C@@]67CCCN6C[C@H](F)C7)nc5c3F)N(C3CCN(C5CC5)C3)CCO4)c12 (stereo partly drawn) [Compound 631, 2-amino-4-(8-chloro-4-(1-cyclopropylpyrrolidin-3-yl)-10-fluoro-2-(((2R,7aS)-2-fluorotetrahydro-1H-pyrrolizin-7a(5H)-yl)methoxy)-5,6-dihydro-4H-[1,4]oxazepino[5,6,7-de]quinazolin-9-yl)-7-fluorobenzo[b]thiophene-3-carbonitrile]
10 | < 0.1 µM | < 0.1 µM | < 0.1 µM | – | < 0.1 µM | N#Cc1c(N)sc2c(F)ccc(-c3c(Cl)c4c5c(nc(OC[C@@]67CCCN6C[C@H](F)C7)nc5c3F)N(C3CNC3)CCO4)c12 [Compound 828, 2-amino-4-(4-(azetidin-3-yl)-8-chloro-10-fluoro-2-(((2R,7aS)-2-fluorotetrahydro-1H-pyrrolizin-7a(5H)-yl)methoxy)-5,6-dihydro-4H-[1,4]oxazepino[5,6,7-de]quinazolin-9-yl)-7-fluorobenzo[b]thiophene-3-carbonitrile]
11 | < 0.1 µM | < 0.1 µM | < 0.1 µM | – | < 0.1 µM | C/C=C\[C@H]1COc2c(Cl)c(-c3ccc(F)c4sc(N)c(C#N)c34)c(F)c3nc(OC[C@@]45CCCN4C[C@H](F)C5)nc(c23)N1CC(F)F [Compound 1032, 2-amino-4-((5S)-8-chloro-4-(2,2-difluoroethyl)-10-fluoro-2-(((2R,7aS)-2-fluorotetrahydro-1H-pyrrolizin-7a(5H)-yl)methoxy)-5-((Z)-prop-1-en-1-yl)-5,6-dihydro-4H-[1,4]oxazepino[5,6,7-de]quinazolin-9-yl)-7-fluorobenzo[b]thiophene-3-carbonitrile]

Row | Structure (SMILES) | IC50 (K-Ras G12D) | IC50 (K-Ras G12V) | IC50 (K-Ras WT) | IC50 (SW620 cells) | IC50 (K-Ras G12S)
12 | N#Cc1c(N)sc2c(F)ccc(-c3c(Cl)c4c5c(nc(OC[C@@]67CCCN6C[C@H](F)C7)nc5c3F)N(C3CCCCN(C(=O)C5CN5)C3)CCO4)c12 (stereo partly drawn) [Compound 992, 2-amino-4-(4-(1-(aziridine-2-carbonyl)azepan-3-yl)-8-chloro-10-fluoro-2-(((2R,7aS)-2-fluorotetrahydro-1H-pyrrolizin-7a(5H)-yl)methoxy)-5,6-dihydro-4H-[1,4]oxazepino[5,6,7-de]quinazolin-9-yl)-7-fluorobenzo[b]thiophene-3-carbonitrile] | – | – | – | < 5 µM | –
13 | CN(CCCN1CCOc2c(Cl)c(-c3ccc(F)c4sc(N)c(C#N)c34)c(F)c3nc(OC[C@@]45CCCN4C[C@H](F)C5)nc1c23)C(=O)[C@H]1CN1 [Compound 908, (2R)-N-(3-(9-(2-amino-3-cyano-7-fluorobenzo[b]thiophen-4-yl)-8-chloro-10-fluoro-2-(((2R,7aS)-2-fluorotetrahydro-1H-pyrrolizin-7a(5H)-yl)methoxy)-5,6-dihydro-4H-[1,4]oxazepino[5,6,7-de]quinazolin-4-yl)propyl)-N-methylaziridine-2-carboxamide] | < 0.1 µM | < 0.1 µM | < 0.1 µM | – | < 0.1 µM
